In patent publication USRE30241E, “Esters of 3-(hydroxy or hydroxymethyl)-4-hydroxyphenyl aminomethyl ketones” (Sterling Drug Inc., priority 1970, dated 1980):
Like-named read-outs stand apart in the source and are kept apart here.

Experiments:
[1] = test system: carbachol- or histamine-induced bronchoconstriction; experiment: Bronchodilator Test Method I, anesthetized dog, intravenous activity; assay type: in vivo; conditions: Canis lupus familiaris, read-out: Bronchodilatation; for inhibition in vivo at 0.00025 mg/kg: 0.25 mcg/kg i.v.; for inhibition in vivo at 0.001 mg/kg: 1 mcg/kg i.v.; for inhibition in vivo at 0.004 mg/kg: 4 mcg/kg i.v.; for inhibition in vivo at 0.0013 mg/kg: 1.3 mcg/kg i.v.; for inhibition in vivo at 0.0065 mg/kg: 6.5 mcg/kg i.v.; for inhibition in vivo at 0.0325 mg/kg: 32.5 mcg/kg i.v.; for inhibition in vivo at 0.008 mg/kg: 8 mcg/kg i.v.; for inhibition in vivo at 0.032 mg/kg: 32 mcg/kg i.v.; for inhibition in vivo at 0.128 mg/kg: 128 mcg/kg i.v.
Method in brief: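 Pentobarbital-anesthetized (30 mg/kg i.v.), open-chest, artificially ventilated dogs were given i.v. carbachol (4-6 µg/kg) or histamine diphosphate (35-45 µg/kg). Test compound was given i.v. mixed with, after, or 1-10 min before the constrictor.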

[2] = test system: carbachol- or histamine-induced bronchoconstriction; experiment: Bronchodilator Test Method I, anesthetized dog, intraduodenal activity; assay type: in vivo; conditions: Canis lupus familiaris, read-out: Bronchodilation; for inhibition in vivo at 0.025 mg/kg: 25 mcg/kg (salt) intraduodenal; for inhibition in vivo at 0.05 mg/kg: 50 mcg/kg (salt) intraduodenal; for inhibition in vivo at 0.032 mg/kg: 32 mcg/kg (salt) intraduodenal; for inhibition in vivo at 0.128 mg/kg: 128 mcg/kg (salt) intraduodenal
Experimental: Male and female dogs weighing 9-18 kg. each were anesthetized with pentobarbital sodium (30 mg./kg. i.v.). Each animal, with thorax opened at the midsternum, was maintained under artificial ventilation using a constant volume pump (250 ml./stroke; 10 to 12 strokes per minute) attached to the tracheal cannula. The flow of air was controlled by a glass or plastic valve which closed and opened respectively on inflow and outflow of the air to and from the tracheal cannula. Bronchoconstriction and/or bronchodilatation were measured from changes in the basal airway pressure reflected by a transducer attached to the sidearm of the cannula relayed to a polygraph.
Control bronchoconstrictions were induced by intravenous injections of carbachol (choline chloride carbamate) in doses ranging from 4 to 6 micrograms per kilogram or histamine diphosphate in doses ranging from 35 to 45 micrograms per kilogram. In the majority of test animals, the above doses of constrictor agents produced a 100-200 percent increase in the normal airway pressure or amplitude.
Injections were repeated at 20-30 minutes.
In intraduodenal studies, in the dog prepared for bronchodilation measurements, the duodenal segment of the small intestine was made easily accessible through a small mid-line incision in the abdomen. The test solution was injected into the duodenum using a fine needle. Commencing 5 minutes after medication, the degree and duration of bronchodilation were tested by injecting a control dose of carbachol or histamine at intervals of 30-60 minutes until the recovery or near-recovery was apparent. In some dogs showing an early recovery, a reference drug was also tested in the same dog 1.5-2 hours after the first medicine.

heart rate = experiment: Cardiovascular studies: effect on the heart rate in the anesthetized dog; assay type: in vivo
Experimental: The effect of a rapid intravenous injection on the heart rate the heart rate was conducted in anesthetized dogs under normal respiration. A few open-chest dogs were also tested. Increase in heart rate was measured by using an electrocardiograph attached to the dog. Readings were taken every 0.5-1 minute for the first 10 minutes and every 2-5 minutes thereafter until recovery. In some cases, several doses and more than one compound were tested alternately in the same dog. The blood pressure effect was simultaneously recorded.

[3] = test system: guinea pig bronchioles constricted by carbachol; experiment: Bronchodilator Test Method II, in vitro perfused guinea pig lung
Experimental: In this method bronchodilator activity in vitro was determined by testing the effect of graded doses of the test compounds on guinea pig bronchioles constricted by carbachol, using the technique reported by Sollman and von Oettingen, Proc. Soc, Exp. Biol. Med., 25,692 (1928) as modified by Tainter, Pedden, and James, J. Pharm. Exp. Ther., 51, 371 (1934) and by Luduena, von Euler, Tullar, and Lands, Arch. intern. Pharmacol., III, 392 (1957).

## CC(C)(C)NCC(O)c1ccc(O)c(CO)c1 (stereo not drawn) [Ref. Cpd. III, 3-Hydroxymethyl-4-hydroxy-alpha-(tert-butylaminomethyl)benzyl alcohol, reference compound]
[1]; 5 min, 5 min
  inhibition in vivo at 0.00025 mg/kg: 18%
  inhibition in vivo at 0.001 mg/kg: 31%
  inhibition in vivo at 0.004 mg/kg: 65%
[1]; 0.5 h, 30 min
  inhibition in vivo at 0.00025 mg/kg: 0%
  inhibition in vivo at 0.001 mg/kg: 14%
  inhibition in vivo at 0.004 mg/kg: 24%
[1]; 1 h, 60 min
  inhibition in vivo at 0.001 mg/kg: 3%
  inhibition in vivo at 0.004 mg/kg: 18%
[1]; 2 h, 120 min
  inhibition in vivo at 0.004 mg/kg: 0%
[2]; 10 min, 10 min
  inhibition in vivo at 0.025 mg/kg: 45%
  inhibition in vivo at 0.05 mg/kg: 13%
[2]; 0.5 h, 30 min
  inhibition in vivo at 0.05 mg/kg: 42%
[2]; 1 h, 60 min
  inhibition in vivo at 0.025 mg/kg: 51%
  inhibition in vivo at 0.05 mg/kg: 56%
[2]; 2 h, 120 min
  inhibition in vivo at 0.025 mg/kg: 43%
  inhibition in vivo at 0.05 mg/kg: 71%
[2]; 3 h, 180 min
  inhibition in vivo at 0.025 mg/kg: 0%
  inhibition in vivo at 0.05 mg/kg: 53%
[2]; 4 h, 240 min
  inhibition in vivo at 0.05 mg/kg: 34%
[2]; 5 h, 300 min
  inhibition in vivo at 0.05 mg/kg: 6%
Heart rate; 0.25 mcg/kg (salt) i.v.
  Mean Maximal Increase in the Heart Rate: 9 Beats/Minute
Heart rate; 1 mcg/kg (salt) i.v.
  Mean Maximal Increase in the Heart Rate: 15 Beats/Minute
Heart rate; 4 mcg/kg (salt) i.v.
  Mean Maximal Increase in the Heart Rate: 34 Beats/Minute

## CC(=O)Oc1ccc(C(O)CNC(C)(C)C)cc1OC(=O)C12CC3CC(CC(C3)C1)C2 (stereo not drawn) [Example 148, 3-(1-adamantanecarbonyloxy)-4-acetoxy-alpha-(tert-butylaminomethyl)benzyl alcohol methanesulfonate]
[1]; 5 min, 5 min
  inhibition in vivo at 0.0013 mg/kg: 21%
  inhibition in vivo at 0.0065 mg/kg: 47%
  inhibition in vivo at 0.0325 mg/kg: 95%
[1]; 0.5 h, 30 min
  inhibition in vivo at 0.0013 mg/kg: 1%
  inhibition in vivo at 0.0065 mg/kg: 30%
  inhibition in vivo at 0.0325 mg/kg: 66%
[1]; 1 h, 60 min
  inhibition in vivo at 0.0013 mg/kg: 10%
  inhibition in vivo at 0.0065 mg/kg: 23%
  inhibition in vivo at 0.0325 mg/kg: 54%
[1]; 2 h, 120 min
  inhibition in vivo at 0.0013 mg/kg: 16%
  inhibition in vivo at 0.0065 mg/kg: 15%
  inhibition in vivo at 0.0325 mg/kg: 39%
[1]; 3 h, 180 min
  inhibition in vivo at 0.0065 mg/kg: 13%
  inhibition in vivo at 0.0325 mg/kg: 28%
[1]; 4 h, 240 min
  inhibition in vivo at 0.0325 mg/kg: 14%
Heart rate; 6.5 mcg/kg (salt) i.v.
  Mean Maximal Increase in the Heart Rate: 32 Beats/Minute
Heart rate; 32.5 mcg/kg (salt) i.v.
  Mean Maximal Increase in the Heart Rate: 58 Beats/Minute

## CC(=O)OCc1cc(C(O)CNC(C)(C)C)ccc1OC(=O)c1ccc(C)cc1 (stereo not drawn) [Example 150, 3-acetoxymethyl-4-(p-toluyloxy)-alpha-(tert-butylaminomethyl)benzyl alcohol methanesulfonate]
[1]; 5 min, 5 min
  inhibition in vivo at 0.008 mg/kg: 42%
  inhibition in vivo at 0.032 mg/kg: 64%
  inhibition in vivo at 0.128 mg/kg: 85%
[1]; 0.5 h, 30 min
  inhibition in vivo at 0.008 mg/kg: 37%
  inhibition in vivo at 0.032 mg/kg: 66%
  inhibition in vivo at 0.128 mg/kg: 87%
[1]; 1 h, 60 min
  inhibition in vivo at 0.008 mg/kg: 44%
  inhibition in vivo at 0.032 mg/kg: 54%
  inhibition in vivo at 0.128 mg/kg: 67%
[1]; 2 h, 120 min
  inhibition in vivo at 0.008 mg/kg: 44%
  inhibition in vivo at 0.032 mg/kg: 40%
  inhibition in vivo at 0.128 mg/kg: 60%
[1]; 3 h, 180 min
  inhibition in vivo at 0.008 mg/kg: 32%
  inhibition in vivo at 0.032 mg/kg: 30%
  inhibition in vivo at 0.128 mg/kg: 52%
[1]; 4 h, 240 min
  inhibition in vivo at 0.008 mg/kg: 20%
  inhibition in vivo at 0.032 mg/kg: 0%
  inhibition in vivo at 0.128 mg/kg: 24%
[2]; 5 min, 5 min
  inhibition in vivo at 0.032 mg/kg: 12%
  inhibition in vivo at 0.128 mg/kg: 68%
[2]; 0.5 h, 30 min
  inhibition in vivo at 0.032 mg/kg: 12%
  inhibition in vivo at 0.128 mg/kg: 68%
[2]; 1 h, 60 min
  inhibition in vivo at 0.032 mg/kg: 12%
  inhibition in vivo at 0.128 mg/kg: 61%
[2]; 2 h, 120 min
  inhibition in vivo at 0.032 mg/kg: 0%
  inhibition in vivo at 0.128 mg/kg: 61%
[2]; 3 h, 180 min
  inhibition in vivo at 0.032 mg/kg: 0%
  inhibition in vivo at 0.128 mg/kg: 45%
[2]; 4 h, 240 min
  inhibition in vivo at 0.128 mg/kg: 39%
[3]; carbachol (Doryl) 1:5 million
  ED50 (printed in brackets, footnote **ED50): 9.3 µg (base)
[3]; dose 10 mcg (base)
  Duration, Mean: 25.5 ± 16.2 min
